Experimental data reported in patent EP4813463A2, “TYK2 INHIBITORS AND COMPOSITIONS AND METHODS THEREOF” (Lynk Pharmaceuticals Co. Ltd., priority 2023, dated 2024).
In brackets after ≈: the same amount, converted by molar mass. Where two headings read alike, the source gives them in different places.

Tests used:
[1] = target: T1, TYK2-JH2 domain (Homo sapiens, UniProt P29597); assay: Binding activity test for JH2 domain of TYK2 (Tb-antibody/tracer FRET); details: for IC50: JH2 domain enzyme, 60 min at 25°C, then 4°C overnight, read-out: TYK2 JH2 Binding IC50; for JAK1/TYK2 selectivity: ratio of JAK1 JH2 to TYK2 JH2 binding IC50
T1 construct: JAK1-JH2 domain or TYK2-JH2 domain enzyme in assay buffer
Procedure, shortened: (§1)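 IC50 values (nM) come from TR-FRET readings taken after a 25°C incubation followed by overnight at 4°C. Each well held JH2 domain protein, Tb-antibody, tracer and test compound titrated in 11 threefold steps, with DMSO high and low controls.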

[2] = target: T2, JAK1-JH2 domain (Homo sapiens, UniProt P23458); assay: Binding activity test for JH2 domain of JAK1 (Tb-antibody/tracer FRET); details: JH2 domain enzyme; 60 min at 25°C, then 4°C overnight; read-out: JAK1 JH2 Binding IC50
T2 construct: JAK1-JH2 domain or TYK2-JH2 domain enzyme in assay buffer
Procedure, shortened: as §1

[3] = system: Ba/F3-FL-TYK2-P760L cells; assay: Anti-proliferative assay in engineered Ba/F3 cells (Cell-Titer Glo, 72 h); type: cell-based; details: Mus musculus, BaF3, 72 h, 72 h compound treatment, concentration that causes 50% growth inhibition, read-out: Baf3-FL-T2P760L
Procedure, shortened: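 IC50 from luminescent ATP viability after 72 h compound exposure (37 °C, 5% CO2), % inhibition normalised to DMSO-treated cells minus medium blank. IL-3-free Ba/F3-FL-TYK2-P760L (Tel-JAK fusion) cells in 10% FBS RPMI-1640 received 9 three-fold doses, top 20 µM, 0.1% DMSO.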

[4] = system: pSTAT1; assay: Phosphorylation inhibition of STAT in human whole blood (IFN-alpha stimulated, flow cytometry); type: cell-based; details: T-cell, 20 min, IFN-alpha stimulation 20 mins, CD3 T cells, read-out: pSTAT1 inhibition in hWB (IC50)
Procedure, shortened: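 Fresh human whole blood stimulated 20 min with human universal type I IFN-alpha, then fixed, permeabilised and stained for CD3 and pSTAT1 (Y701). pSTAT1 in T cells read by flow cytometry; IC50 from 4-parameter logistic fit.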

[5] = Kinetic solubility; type: physicochemical; details: phosphate buffer, pH 7.4, aqueous buffer, kinetic from dmso stock, 100 mM pH 7.4 phosphate buffer, 1% DMSO, room temperature, read-out: Kinetics Solubility_PBS7.4
Procedure: Aliquots of 8 µL of reference and test compound stock solutions (10 mM/5 mM) are added into 792 µL of 100 mM pH 7.4 phosphate buffer. The final DMSO concentration is 1%. Sample tubes are shaken for 2 hours at 1000 rpm at room temperature. Samples are centrifuged at 12000 rpm for 10 min to precipitate un-dissolved particles. And transfer the supernatants to a new tube or plate. Add 5 µL of samples (no diluted, 10 times diluted, and 100 times diluted) and standard curve samples to 95 µL of ACN containing IS for LC-MS/MS analysis. Kinetic Solubilities Values of Exemplary Compounds

[6] = Microsomal metabolic stability assay; type: in vitro ADME; details: human, liver microsomes, pH 7.4, 0.5 mg/mL microsomal protein, 1 µM test article, 2 mM NADPH; for microsomal CLint at 1 µM: read-out: Human LM Clint; for half-life at 1 µM: read-out: Human LM T1/2
Procedure, shortened: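 Test or control compound (1 µM) incubated with microsomes (0.5 mg/mL protein) in 100 mM potassium phosphate pH 7.4, 1.0 mM EDTA at 37°C, started with NADPH regenerating system (2 mM NADPH). Sampled at 0, 5, 15, 30, 45 min, acetonitrile-quenched, LC/MS/MS. T1/2 from ln %remaining vs time slope; CLint = 0.693/T1/2 per mg protein/mL.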

[7] = Caco-2 cell permeability; type: in vitro ADME; details: human, Caco-2, 10.0 µM, no p-gp inhibitor; for Papp A→B at 90 min, 10 µM: A to B; for Papp B→A at 90 min, 10 µM: B to A; for efflux ratio at 90 min, 10 µM: read-out: Efflux Ratio: Papp(B-A)/Papp(A-B)
Procedure: Compounds permeability was evaluated using Caco-2 cell lines. HBSS buffer was used as transfer buffer. Appropriate dosing and receiver solutions were applied to the donor and receiver chambers to initiate the transport assay in apical to basolateral (A to B) or basolateral to apical (B to A) directions. Compounds were tested at 10.0 µM in the absence of p-gp inhibitor bidirectionally in duplicates. After incubation at 37°C for 90 mins, donor and receiver samples were analyzed by LC-MS/MS. The intestinal absorption potential was assessed using Papp value and efflux ratio.

[8] = Brain pharmacokinetic studies in rats; type: in vivo, Sprague-Dawley rats
Procedure: Pharmacokinetic profiles of test articles were evaluated in fasted Sprague-Dawley rats. Different kinds of formulations were designed to ensure test articles fully dissolved and wouldn't precipitate in 1:10 SGF or FaSSIF dilution. Typically, Rats were dosed with 3 mg/kg and 5 mg/kg by intravenous injection and oral gavage, respectively. The animal was restrained manually at the designated time points, approximately 150 µL of blood sample was collected via jugular vein for serial bleeding into K2EDTA tubes. The blood samples were maintained in wet ice first and centrifuged to obtain plasma (2000g, 4°C, 5 min) within 30 minutes post sampling. Anesthetizing the rat with the Isoflurane vaporizer to 2%~3% and place its back on the operation table. Spread the animal limbs and pin the limbs on the operation table. Make a cut along the sternum about 4cm long, low enough to expose the sternum's end. Expose the heart and use a 25-gauge needle connected with a 20 mL syringe filled with 20 mL of cold saline to pierce the left ventricle. Maintain the placement of the needle, and slowly push the syringe plunger to wash the brain with saline. The perfusion will be finished within about 2 min and then take the brain out of the body carefully without damaging the tissue. Dry the tissue on filtrate paper, which should be placed on ice, and then weigh the brain tissue and store at -70 °C and analyzed by LC/MS/MS for quantification. PK parameter values, including, but not necessarily limited to, the maximum plasma concentrations (Cmax), and the area under the plasma concentration vs. time curve (AUC) from time zero to 24-hour (AUC0-24h) were determined using WinNonlin program. Table 13. Systemic Pharmacokinetic Parameters in Sprague-Dawley Rats

[9] = system: TYK2 pathway; assay: IFN-γ release in NK92 cells stimulated by IL-12 (ELISA); type: cell-based; details: IL-12 2.5ng/mL stimulation 15hrs, IFN-γ in supernatant by ELISA
Procedure: IFN-γ Release in NK92 Cells Stimulated by IL-12
Purpose: To evaluate the inhibition activity of TYK2 inhibitors in NK92 cells on TYK2 pathway through ELISA method.
Procedure: 1) Seeding NK92 cells into 96-well plate, cell density is 1.5E5 cells/well, 100uL/well; 2)Add prepared test articles into indicated wells, 50uL/well, and continue incubate for 1h, at 37°C; 3) After compound treatment, add 50uL/well IL-12 into indicated wells, final concentration of IL-12 is 2.5ng/mL; 4)Incubate cytokine stimulated cells at 37°C for another 15hrs in CO2 incubator; 5) After cytokine stimulation, transfer culture supernatant into a new plate and centrifuge for 5min at 350x g, and detect IFN-γ concentration in the supernatant with ELISA kit; 6) Data analysis with GrapdPad Prism6.0 software. Table 5. IC50 Values of Exemplary Compounds on TYK2 Pathway

T2 sequence (P23458 583-855 limits assumed): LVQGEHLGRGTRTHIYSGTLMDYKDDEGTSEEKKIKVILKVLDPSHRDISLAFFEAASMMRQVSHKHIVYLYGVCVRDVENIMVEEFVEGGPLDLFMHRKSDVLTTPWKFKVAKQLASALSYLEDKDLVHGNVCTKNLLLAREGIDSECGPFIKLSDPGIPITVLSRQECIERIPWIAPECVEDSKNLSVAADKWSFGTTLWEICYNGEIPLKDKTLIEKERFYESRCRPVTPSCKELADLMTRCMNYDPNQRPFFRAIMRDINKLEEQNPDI
T1 sequence (P29597 589-875 limits assumed): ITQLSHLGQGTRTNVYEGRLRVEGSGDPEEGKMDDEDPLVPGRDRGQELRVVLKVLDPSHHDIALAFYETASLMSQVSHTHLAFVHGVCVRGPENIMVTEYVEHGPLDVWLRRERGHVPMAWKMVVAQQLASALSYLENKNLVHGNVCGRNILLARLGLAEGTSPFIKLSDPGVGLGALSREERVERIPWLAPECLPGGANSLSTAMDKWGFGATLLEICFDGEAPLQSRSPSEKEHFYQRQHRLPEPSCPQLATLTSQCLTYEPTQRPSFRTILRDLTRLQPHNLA

Row | SMILES | IC50 [1] [nM] | JAK1/TYK2 selectivity [1] | IC50 [2] [nM] | IC50 [3] [nM] | IC50 [4] [nM] | solubility kinetic at 2 h [5] [µM] | microsomal CLint at 1 µM [6] [µL/min/mg] | half-life at 1 µM [6] [h] | Papp A→B at 90 min, 10 µM [7] [×10⁻⁶ cm/s] | Papp B→A at 90 min, 10 µM [7] [×10⁻⁶ cm/s] | efflux ratio at 90 min, 10 µM [7] | half-life ([8]; Sprague-Dawley, rat, brain, rats, iv, 3 mg/kg, solution) [min] | Kp ([8]; Sprague-Dawley, rat, brain, rats, iv, 3 mg/kg, solution, read-out: Brain AUC/Systemic AUC) | half-life ([8]; Sprague-Dawley, rat, systemic (plasma), rats, iv, 3 mg/kg, solution) [min] | AUC ([8]; Sprague-Dawley, rat, systemic (plasma), rats, iv, 3 mg/kg, solution, read-out: AUC) [ng·h/mL] | AUC ([8]; brain, rats, iv, 3 mg/kg, solution) [ng·h/g] | brain exposure in Rats ([8]; result in words) | IC50 [9] [nM]
1 | [2H]C([2H])([2H])NC(=O)c1cnc(NC(=O)C2CC2)cc1Nc1cnn2ccc(CC(F)(F)F)c(OC)c12 [Example 8, 6-(Cyclopropanecarboxamido)-4-((4-methoxy-5-(2,2,2-trifluoroethyl)pyrazolo[1,5-a]pyridin-3-yl)amino)-N-(methyl-d3)nicotinamide] | 0.106 | 32.0 | 3.39 | 31.3 | 75.5 | 18.6 (≈ 8.63 µg/mL) | – | – | – | – | – | – | – | – | – | – | – | –
2 | [2H]C([2H])([2H])NC(=O)c1cnc(NC(=O)C2CC2)cc1Nc1cnn2ccc(C(C)O)c(OC)c12 (stereo not shown) [Example 23, 6-(Cyclopropanecarboxamido)-4-((5-(1-hydroxyethyl)-4-methoxypyrazolo[1,5-a]pyridin-3-yl)amino)-N-(methyl-d3)nicotinamide] | 0.185 | 72.7 | 13.5 | 166 | – | – | 0.17 | 132 | 0.46 | 37.6 | 82.7 | – | – | – | – | – | – | –
3 | [2H]C([2H])([2H])NC(=O)c1cnc(Nc2ccc(F)cn2)cc1Nc1cnn2ccc([C@H](O)C(F)(F)F)c(OC)c12 [Example 24, (S)-6-((5-fluoropyridin-2-yl)amino)-4-((4-methoxy-5-(2,2,2-trifluoro-1-hydroxyethyl)pyrazolo[1,5-a]pyridin-3-yl)amino)-N-(methyl-d3)nicotinamide] | 0.066 | 281.8 | 18.6 | 3.87 | 34.6 | 10.4 (≈ 5.27 µg/mL) | 24.6 | 0.937 | – | – | – | – | – | – | – | – | – | –
4 | [2H]C([2H])([2H])NC(=O)c1cnc(NC(=O)C2CC2)nc1Nc1cnn2ccc([C@H](O)C(F)(F)F)c(OC)c12 [Example 33, (S)-2-(cyclopropanecarboxamido)-4-((4-methoxy-5-(2,2,2-trifluoro-1-hydroxyethyl)pyrazolo[1,5-a]pyridin-3-yl)amino)-N-(methyl-d3)pyrimidine-5-carboxamide] | 0.082 | 418.3 | 34.3 | 16 | – | 59.4 (≈ 28.6 µg/mL) | – | – | 0.39 | 46.5 | 121 | – | – | – | – | – | – | –
5 | COC(=O)c1cnc(NC(=O)C2CC2)cc1Nc1cnn2ccc([C@H](OC)C(F)(F)F)c(OC)c12 [Example 42, Methyl (S)-6-(cyclopropanecarboxamido)-4-((4-methoxy-5-(2,2,2-trifluoro-1-methoxyethyl)pyrazolo[1,5-a]pyridin-3-yl)amino)nicotinate] | 0.202 | 391.2 | 79 | 104 | – | – | – | – | – | – | – | 15 | 1.99 | 20.4 | 646 | 1286 | good brain exposure | –
6 | [2H]C([2H])([2H])NC(=O)c1cnc(NC(=O)C2CC2)cc1Nc1nn(C)c2ccc([C@H](OC)C(F)(F)F)c(OC)c12 [Example 46A, (S)-6-(cyclopropanecarboxamido)-4-((4-methoxy-1-methyl-5-(2,2,2-trifluoro-1-methoxyethyl)-1H-indazol-3-yl)amino)-N-(methyl-d3)nicotinamide] | 0.074 | 40.64 | 3.01 | 0.31 | 33 | 8.16 (≈ 4.16 µg/mL) | – | – | – | – | – | – | – | – | – | – | – | –
7 | [2H]C([2H])([2H])NC(=O)c1cnc(NC(=O)C2CC2)cc1Nc1nn(C)c2ccc(C(O)C(F)(F)F)c(OC)c12 (stereo not shown) [Example 49, 6-(Cyclopropanecarboxamido)-4-((4-methoxy-1-methyl-5-(2,2,2-tritluoro-1-hydroxyethyl)-1H-indazol-3-yl)amino)-N-(methyl-d3)nicotinamide] | 0.136 | 30.13 | 4.1 | 0.729 | 27.9 | 83 (≈ 41.1 µg/mL) | 15.7 | 1.47 | – | – | – | – | – | – | – | – | – | –
8 | CNC(=O)c1cnc(NC(=O)C2CC2)cc1Nc1nn(C)c2cccc(OC)c12 [Example 100, 6-(Cyclopropanecarboxamido)-4-((4-methoxy-1-methyl-1H-indazol-3-yl)amino)-N-methylnicotinamide] | 0.97 | 116.4 | 113 | 505 | – | – | – | – | – | – | – | – | – | – | – | – | – | 86.8
9 | CCC(=O)c1cnc(NC(=O)C2CC2)cc1Nc1ccc2cn[nH]c2c1OC [Example 196, N-(4-((7-Methoxy-1H-indazol-6-yl)amino)-5-propionylpyridin-2-yl)cyclopropanecarboxamide, reference compound] | 3.93 | 8.04 | 31.6 | – | > 10000 | – | – | – | – | – | – | – | – | – | – | – | – | 923
10 | CCC(=O)c1cnc(NC(=O)C2CC2)cc1Nc1ccc2[nH]cnc2c1OC [Example 197, N-[4-[(4-Methoxy-1H-benzimidazol-5-yl)amino]-5-propanoyl-2-pyridyl] cyclopropanecarboxamide, reference compound] | 2.72 | 6.41 | 17.4 | 426 | – | – | – | – | – | – | – | – | – | – | – | – | – | 515
